Results on five molecules are retold here after US8518958B2, “Pyrido [2,3-D] pyrimidines and their use as kinase inhibitors” (Forma Therapeutics, Inc., priority 2006, dated 2013).

Some results are limits rather than exact numbers.

For assay [1], the target named is C-Raf Raf-1 (truncated), active (Homo sapiens, UniProt P04049, Y340D/Y341D). As to the kind of experiment: C-Raf kinase inhibition (MAPH assay / IMAP assay). Particulars: read-out: Biochemical IC50 C-Raf. The method, boiled down:
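Truncated active human C-Raf (Y340D/Y341D), room temperature, top inhibitor concentration 10 μM in a dilution series for IC50. MAPH: 57.8 μM myelin basic protein with [γ-33P]ATP, kinase at 10% ATP turnover, 1 h, filter-bound radioactivity. IMAP: 400 nM fluorescent peptide, 20 mM Hepes pH 7.5 with 10 mM MnCl2, kinase at 50% turnover, fluorescence polarization.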

Assay [2] deals with B-Raf delta1-415 (Homo sapiens, UniProt P15056). As to the kind of experiment: B-Raf kinase inhibition (MAPH filter plate, 33P-ATP, MEK1 substrate). The settings on record: read-out: Biochemical IC50 B-Raf. The method, boiled down: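 IC50 values come from dilution series (top 10 μM) measured by scintillation counting of 33P-labelled MEK1 retained on H3PO4-washed filters. Reactions ran 1 h at room temperature in pH 7.0 Mops buffer with MgCl2, MnCl2 and DTT, using 12.5 μCi/ml [γ-33P]ATP and B-Raf delta1-415 titrated to 50% turnover.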

Assay [3] has as its system HT-29 tumor cells. As to the kind of experiment: Anti-proliferative activity, SRB assay. The class given is cell-based, human. Particulars: Homo sapiens, HT-29, 72 h, 72 hours exposure, read-out: CELLULAR IC50 HT-29. The method, boiled down: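 IC50 derived from % inhibition relative to DMSO controls, measured by sulforhodamine B binding (OD570) after TCA fixation. Cells (3,000-15,000 per well) were seeded a day ahead, then treated with graded compound concentrations for 72 hours.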
For orientation: In SRB staining, fixed cells bind dye roughly in proportion to their protein.

B-Raf delta1-415, sequence (P15056 416-766): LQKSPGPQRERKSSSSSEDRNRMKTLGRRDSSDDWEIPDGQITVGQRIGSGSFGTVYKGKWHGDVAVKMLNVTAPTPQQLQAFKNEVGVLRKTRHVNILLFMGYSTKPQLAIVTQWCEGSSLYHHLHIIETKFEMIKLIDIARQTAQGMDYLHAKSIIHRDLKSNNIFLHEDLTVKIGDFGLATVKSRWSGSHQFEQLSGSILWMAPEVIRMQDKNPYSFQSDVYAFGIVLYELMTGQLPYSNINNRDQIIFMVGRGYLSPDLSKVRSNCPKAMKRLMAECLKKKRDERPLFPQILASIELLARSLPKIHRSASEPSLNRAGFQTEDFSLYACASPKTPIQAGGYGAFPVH
C-Raf Raf-1 (truncated), active, sequence (P04049 306-648 Y340D/Y341D): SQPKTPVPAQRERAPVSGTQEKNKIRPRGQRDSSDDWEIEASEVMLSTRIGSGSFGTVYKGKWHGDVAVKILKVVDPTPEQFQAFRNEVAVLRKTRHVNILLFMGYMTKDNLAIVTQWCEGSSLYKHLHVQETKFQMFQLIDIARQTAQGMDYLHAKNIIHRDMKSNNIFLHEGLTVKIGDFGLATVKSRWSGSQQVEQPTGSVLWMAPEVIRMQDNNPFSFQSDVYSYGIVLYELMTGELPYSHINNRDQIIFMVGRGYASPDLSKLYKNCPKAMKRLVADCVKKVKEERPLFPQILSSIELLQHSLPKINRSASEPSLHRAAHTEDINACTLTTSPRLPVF

For the molecule `COc1cccc(Nc2ncc3cc(-c4c(Cl)cccc4Cl)c(=O)n(OCCO)c3n2)c1` [Compound 73, 6-(2,6-Dichlorophenyl)-8-(2-hydroxyethyl)oxy-2-(3-methoxyphenyl)amino-pyrido[2,3-d]pyrimidin-7-one], the IC50 – broadly, the concentration at which inhibition is half-maximal – in assay [1] was below 100 nM; in assay [2], below 100 nM; in assay [3] it was below 1000 nM.

As to `CNCCOn1c(=O)c(-c2c(Cl)cccc2Cl)cc2cnc(Nc3cccc(OC)c3)nc21` [Compound 74, 6-(2,6-Dichlorophenyl)-8-(2-methylaminoethyl)oxy-2-(3-methoxyphenyl)amino-pyrido[2,3-d]pyrimidin-7-one], the IC50 was below 500 nM in assay [1], below 100 nM in assay [2] and below 1000 nM in assay [3].

Take `COc1cccc(Nc2ncc3cc(-c4c(F)cccc4Cl)c(=O)n(OC[C@@H](O)CO)c3n2)c1` [Compound 75, 6-(2-Chloro-6-fluorophenyl)-8-(2-(S)-2,3-dihydroxypropyl)oxy-2-(3-methoxyphenyl)amino-pyrido[2,3-d]pyrimidin-7-one]: the IC50 in assay [1] is below 100 nM; in assay [2], below 100 nM; in assay [3], below 1000 nM.

As to `COc1cccc(Nc2ncc3cc(-c4c(Cl)cccc4Cl)c(=O)n(OCCN(C)C)c3n2)c1` [Compound 77, 6-(2,6-Dichlorophenyl)-8-(2-dimethylaminoethyl)oxy-2-(3-methoxyphenyl)amino-pyrido[2,3-d]pyrimidin-7-one], the IC50 in assay [1] is below 500 nM; in assay [2] it was below 100 nM; in assay [3] it was below 1000 nM.

`CN1CCN(c2ccc(Nc3ncc4cc(-c5c(F)cccc5Cl)c(=O)n(O)c4n3)cc2)CC1` [Compound 241]: the results for the IC50 in assay [1], in assay [2] and in assay [3] were above 1000 nM, below 500 nM and below 1000 nM, respectively.
